Data published in patent publication US8658131B2, “Compounds comprising 4-benzoylpiperidine as a sigma-1-selective ligand” (Washington University, priority 2010, dated 2014).
Structures can show the parent of a compound that is named as a salt. Where two headings read alike, the source gives them in different places.

Key:
[1] = target: σ1 receptor (Homo sapiens, UniProt Q99720); settings: prior art ligands of FIG. 1; read-out: σ1 receptor binding affinity; cited from earlier work
[2] = target: T1, σ1 receptors (Mus musculus, UniProt O55242); assay: Ex vivo autoradiography of [11C]14e in mice; settings: 30 min post-injection
T1 construct: Ex vivo autoradiography studies were also conducted in mice; from tissue; host or cells: mouse brain (living animal, ex vivo autoradiography)
T1 sequence (O55242 whole entry): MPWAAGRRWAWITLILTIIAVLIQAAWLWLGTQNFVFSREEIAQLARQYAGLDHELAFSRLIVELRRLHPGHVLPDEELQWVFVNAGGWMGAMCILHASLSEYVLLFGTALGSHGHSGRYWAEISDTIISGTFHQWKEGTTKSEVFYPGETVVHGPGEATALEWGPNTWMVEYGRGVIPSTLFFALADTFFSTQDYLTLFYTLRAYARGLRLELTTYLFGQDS
Procedure: (§1) Radiosynthesis of [^11C] […] Tissue samples were taken and converted to % ID/g for each organ. Ex vivo autoradiography studies were also conducted in mice at 30 min post-injection of the radiotracer. A microPET imaging study was also performed on a male cynomolgus monkey.

[3] = Biodistribution of [11C]14e in mice; format: in vivo
Procedure: as §1

[4] = target: T2, σ1 receptors (Rattus norvegicus, UniProt Q9R0C9); assay: σ1 binding of Table 5 compounds
T2 construct: tested in rat brain and in guinea pig membranes, respectively; from tissue; host or cells: rat brain
T2 sequence (Q9R0C9 whole entry): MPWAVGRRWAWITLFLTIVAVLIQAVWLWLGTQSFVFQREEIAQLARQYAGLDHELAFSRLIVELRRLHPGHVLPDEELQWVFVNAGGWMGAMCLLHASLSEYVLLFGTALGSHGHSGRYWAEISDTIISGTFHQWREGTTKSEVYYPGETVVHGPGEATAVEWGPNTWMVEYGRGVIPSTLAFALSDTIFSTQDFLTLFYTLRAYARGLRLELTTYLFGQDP

[5] = target: T3, VAChT (Tetronarce californica, UniProt P81721); assay: biochemical; format: binding; settings: for VAChT/σ selectivity: in words; for σ1/VAChT: selectivity index Ki (σ1)/Ki (VAChT); for σ2/VAChT: selectivity index Ki (σ2)/Ki (VAChT)
T3 construct: using highly purified Torpedo synaptic vesicles; from tissue
T3 sequence (P81721 1-515): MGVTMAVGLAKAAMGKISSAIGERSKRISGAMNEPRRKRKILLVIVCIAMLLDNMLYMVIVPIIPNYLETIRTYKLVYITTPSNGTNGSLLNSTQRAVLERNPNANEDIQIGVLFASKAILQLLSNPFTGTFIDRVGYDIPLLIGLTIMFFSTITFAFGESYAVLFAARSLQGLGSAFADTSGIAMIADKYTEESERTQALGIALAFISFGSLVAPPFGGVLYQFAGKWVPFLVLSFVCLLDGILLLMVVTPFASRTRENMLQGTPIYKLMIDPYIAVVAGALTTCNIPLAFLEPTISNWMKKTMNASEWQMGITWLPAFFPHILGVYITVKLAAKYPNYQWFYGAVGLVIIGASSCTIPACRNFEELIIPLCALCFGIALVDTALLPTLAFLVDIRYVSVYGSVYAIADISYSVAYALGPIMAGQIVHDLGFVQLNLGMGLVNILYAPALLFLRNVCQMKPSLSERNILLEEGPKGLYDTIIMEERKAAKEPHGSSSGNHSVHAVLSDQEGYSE

[6] = target: T4, σ2 receptor (Rattus norvegicus, UniProt Q5U3Y7); assay: σ2 binding of Table 5 compounds; design: species or system guinea pig; settings: read-out: σ2 Ki (nM) ± SEM; Table 6
T4 sequence (Q5U3Y7 1-176): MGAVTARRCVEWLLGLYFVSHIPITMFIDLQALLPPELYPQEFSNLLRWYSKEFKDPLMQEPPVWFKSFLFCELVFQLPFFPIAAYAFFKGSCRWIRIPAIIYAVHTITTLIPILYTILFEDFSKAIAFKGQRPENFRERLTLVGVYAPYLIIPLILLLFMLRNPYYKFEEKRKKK
Procedure: Compounds were tested for VAChT binding using highly purified Torpedo synaptic vesicles. The σ1 and σ2 binding affinities were tested in rat brain and in guinea pig membranes, respectively. Structures and Equilibrium binding constants (Ki) are reported in Table 5 and Table 6, respectively. As in previous studies, we define ligand selectivity in terms of a selectivity index which is calculated as Ki (σ1 or σ2)/Ki (VAChT).
Consequently, we also screened the target compounds for sigma binding to identify selective VAChT ligands from this new structural class of agents.

[7] = target: T5, VAChT (Homo sapiens, UniProt Q16572); settings: previous study; cited from earlier work
T5 sequence (Q16572 1-532): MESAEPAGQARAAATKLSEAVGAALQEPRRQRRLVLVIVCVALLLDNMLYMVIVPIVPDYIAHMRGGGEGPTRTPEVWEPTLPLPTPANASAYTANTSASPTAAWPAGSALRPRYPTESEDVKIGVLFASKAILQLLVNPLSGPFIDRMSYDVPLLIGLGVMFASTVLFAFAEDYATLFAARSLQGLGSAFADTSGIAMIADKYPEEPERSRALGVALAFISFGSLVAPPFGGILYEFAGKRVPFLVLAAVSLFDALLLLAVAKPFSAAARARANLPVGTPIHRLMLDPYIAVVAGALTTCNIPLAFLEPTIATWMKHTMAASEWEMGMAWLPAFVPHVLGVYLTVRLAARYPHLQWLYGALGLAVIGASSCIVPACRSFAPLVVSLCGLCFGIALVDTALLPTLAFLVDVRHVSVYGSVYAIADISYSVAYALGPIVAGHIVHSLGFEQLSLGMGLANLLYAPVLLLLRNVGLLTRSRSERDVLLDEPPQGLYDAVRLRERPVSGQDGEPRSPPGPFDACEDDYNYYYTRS

[8] = target: T4, σ2 receptor; assay: σ2 receptor binding assay, [3H]DTG, rat liver membrane homogenates; design: conducted using rat liver membrane homogenates; from tissue; host or cells: rat liver membrane homogenates; settings: Table 4, Ki values of VAChT specific compounds, tissue not given
[9] = target: T6, human vesicular acetylcholine transporter (VAChT) (Homo sapiens, UniProt Q16572); assay: VAChT binding assay, (−)-[3H]vesamicol, human VAChT expressed in PC12 cells; settings: Table 4, Ki values of VAChT specific compounds, source not given
T6 construct: expressed in transfected cells; host or cells: PC12 A123.7 cells (crude extract / homogenized, partially clarified cells)
T6 sequence (Q16572 1-532): T5 sequence (Q16572 1-532)

[10] = target: T7, σ1 receptor (Cavia porcellus, UniProt Q60492); assay: σ1 receptor binding assay, (+)-[3H]pentazocine, guinea pig brain membranes; settings: Table 4, Ki values of VAChT specific compounds; tissue not given; read-out: Sigma-1 σ1
T7 construct: using guinea pig brain membrane homogenates; from tissue; host or cells: guinea pig brain membrane homogenates
T7 sequence (Q60492 whole entry): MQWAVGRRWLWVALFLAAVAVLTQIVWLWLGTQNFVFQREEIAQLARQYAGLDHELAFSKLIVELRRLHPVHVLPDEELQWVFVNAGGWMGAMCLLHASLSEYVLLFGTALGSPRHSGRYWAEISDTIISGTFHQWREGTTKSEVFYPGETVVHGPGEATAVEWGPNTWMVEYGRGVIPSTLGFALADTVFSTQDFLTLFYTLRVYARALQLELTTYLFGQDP

Sequence of σ1 receptor (Homo sapiens, UniProt Q99720) (Q99720 whole entry, species assumed): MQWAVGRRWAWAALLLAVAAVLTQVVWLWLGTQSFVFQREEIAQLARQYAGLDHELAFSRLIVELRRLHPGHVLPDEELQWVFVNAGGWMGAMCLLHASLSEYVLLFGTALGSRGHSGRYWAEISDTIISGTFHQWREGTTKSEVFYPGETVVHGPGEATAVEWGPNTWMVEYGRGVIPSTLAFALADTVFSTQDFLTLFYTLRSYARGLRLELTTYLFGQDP

## O[C@H]1CCCC[C@@H]1N1CCC(c2ccc(I)s2)CC1 [(1S,2S)-2-(4-(5-iodothiophen-2-yl)piperidin-1-yl)cyclohexanol]
[1]
  Ki: 9.39 nM

## [11CH3]Oc1ccc(C(=O)C2CCN([C@@H]3CCN(Cc4ccc(F)cc4)C[C@H]3O)CC2)cc1 [[^11C]14e, ((3′R,4′R)-1′-(4-fluorobenzyl)-3′-hydroxy-1,4′-bipiperidin-4-yl)(4-[^11C]methoxyphenyl)methanone]
[2]
  distribution in brain by autoradiography: consistent with the distribution of σ1 receptors in brain
[3]; 5 min post-injection
  regional brain uptake, cerebellum: 6.34±0.05 % ID/g
  regional brain uptake, cortex: 6.69±0.72 % ID/g
  regional brain uptake, hippocampus: 5.41±0.30 % ID/g
  regional brain uptake, striatum: 6.63±0.56 % ID/g
[3]; high between 5 and 30 min, washed out between 30 and 60 min
  clearance from brain: suitable clearance from brain

## CNc1ccc(C(=O)C2CCN(C3Cc4ccccc4CC3O)CC2)cc1 (centres unmarked) [TZ-3-156]
[4]
  Ki: 13.2 ± 0.48 nM
[5]
  Ki: 3.03 nM
  VAChT/σ selectivity: high selectivity
  σ1/VAChT: 100.5
  σ2/VAChT: 2040
[6]
  Ki: 6180 ± 537 nM

## O=C(c1ccc(OCCF)cc1)C1CCN(C2Cc3ccccc3CC2O)CC1 (centres unmarked) [TZ-3-148]
[4]
  Ki: 13.2 ± 0.2 nM
[5]
  VAChT/σ selectivity: poor selectivity
[6]
  Ki: 1890 ± 239 nM

## O=C(c1ccc([18F])cc1)C1CCN(C2Cc3ccccc3CC2O)CC1 (racemic) [FBBV, (±)-trcms-2-Hydroxy-3-(4-(4-[^18F]fluorobenzoyDpiperidino)tetralin]
[7]
  Ki: 2.7 nM

## Cc1ccc(C(=O)C2CCN(C3Cc4ccccc4CC3O)CC2)cn1 (centres unmarked) [OS-5-40, oxalate]
[4]
  Ki: 2110 ± 289 nM
[8]; Sigma-2 σ1 (nM)
  Ki: 3770 ± 886 nM
[6]
  Ki: 3770 ± 886 nM

## Cn1cccc1C(=O)C1CCN(C2Cc3ccccc3CC2O)CC1 (centres unmarked) [OS-5-60, (1-(3-Hydroxy-1,2,3,4-tetrahydronaphthalen-2-yl)piperidin-4-yl)(1-methyl-1H-pyrrol-2-yl) methanone oxalate]
[4]
  Ki: 1300 ± 93 nM
[8]; Sigma-2 σ1 (nM)
  Ki: 2550 ± 339 nM
[5]
  Ki: 18.4 ± 2.54 nM
  VAChT/σ selectivity: moderate or high
  σ1/VAChT: 70.7
  σ2/VAChT: 138.8
[6]
  Ki: 2550 ± 339 nM

## Nc1cccc2c1CC(N1CCC(C(=O)c3cccnc3)CC1)C(O)C2 (centres unmarked) [OS-5-110, (1-(8-Amino-3-hydroxy-1,2,3,4-tetrahydronaphthalen-2-yl)piperidin-4-yl)(pyridin-3-yl)methanone oxalate]
[4]
  Ki: 20300 ± 8130 nM
[8]; Sigma-2 σ1 (nM)
  Ki: 5080 ± 221 nM
[5]
  Ki: 118 ± 23.6 nM
  VAChT/σ selectivity: moderate or high
  σ1/VAChT: 172.4
  σ2/VAChT: 43.0
[9]; VAChT (nM)
  Ki: 2.2 nM
[6]
  Ki: 5080 ± 221 nM

## O=C(c1ccc(OCCF)nc1)C1CCN([C@H]2Cc3ccccc3C[C@@H]2O)CC1 [TZ-5-3]
[4]
  Ki: 2120 ± 49 nM
[5]
  Ki: 38 ± 3.84 nM
  VAChT/σ selectivity: moderate or high
  σ1/VAChT: 55.8
  σ2/VAChT: 48.9
[6]
  Ki: 1860 ± 144 nM

## COc1ccc(C(=O)C2CCN(C3Cc4c(N)cccc4CC3O)CC2)cn1 (centres unmarked) [OS-5-82, (1-(8-Amino-3-hydroxy-1,2,3,4-tetrahydronaphthalen-2-yl)piperidin-4-yl)(6-methoxypyridin-3-yl)methanone oxalate]
[4]
  Ki: 5682 ± 26 nM
[8]; read-out: Sigma-2 σ1
  Ki: 10800 ± 1280 nM
[10]
  Ki: 5682 ± 26 nM
[5]
  Ki: 48 ± 11.4 nM
  VAChT/σ selectivity: moderate or high
  σ1/VAChT: 118.4
  σ2/VAChT: 225.3
[9]; read-out: VAChT
  Ki: 23.3 ± 3.43 nM
[6]
  Ki: 10800 ± 1280 nM

## OC1CCCCC1N1CCC(c2ccccc2)CC1 (single isomer, unassigned; (-)) [(−)-vesamicol, (−)-trans-2-(4-phenylpiperidino)cyclohexanol]
[1]
  Ki: 73.5 nM

## Cc1ccc(C2CCN(C3CCCCC3O)CC2)cc1 (single isomer, unassigned; (-)) [(−)-p-methylvesamicol]
[1]
  Ki: 8.1 nM

## OC1CN(Cc2cccc(I)c2)CCC1N1CCC(c2ccccc2)CC1 (centres unmarked) [meta-iodobenzyltrozamicol]
[1]
  Ki: 92 nM
